{"source": "patent US20030118577A1", "about": "“Use of analogues of superoxide dismutase for treating hepatocellular insufficiencies” (priority 2000, published 2003)", "system": "ischemic lesions of hepatic grafts", "experiment": "Transaminase release from removed mouse livers in Belzer's preservation fluid", "conditions": "Belzer's fluid with MnTBAP 10 μg/ml; 4° C.", "experimental": "Ischemia of hepatic grafts after their removal and during their preservation at 4° C. causes hepatocytic lesions.\nThe intensity of the lesions may be evaluated on the concentration of transaminases in the preservation fluid.\nMouse livers were surgically removed, rinsed with Belzer's preservation fluid supplemented or otherwise with MnTBAP at the concentration of 10 μg/ml. The transaminases were then assayed in the fluid at various times after removal of the organ.", "data": [{"smiles": "O=C(O)c1ccc(-c2c3nc(c(-c4ccc(C(=O)O)cc4)c4ccc([n-]4)c(-c4ccc(C(=O)O)cc4)c4nc(c(-c5ccc(C(=O)O)cc5)c5ccc2[n-]5)C=C4)C=C3)cc1.[Mn+3]", "note": "[MnTBAP, Mn(III) tetrakis(5,10,15,20-benzoic acid)porphyrin]", "values": [{"measurement": "release of transaminases by the liver into preservation fluid", "result": "reduction in the release of transaminases"}]}]}
